Measurements from US12077503B2, “Substituted cyclic amides and their use as herbicides” (FMC CORPORATION, priority 2015, dated 2024).

Legend:
Experiment in all cases: Test C preemergence
Assay type in all cases: in vivo
[1] = system: velvetleaf (Abutilon theophrasti); settings: for Plant response rating, Velvetleaf: scale 0 to 100, 0 no effect, 100 complete control
Outline: (§1)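 Herbicidal effect, applied preemergence to sown seeds or postemergence to 1- to 4-leaf plants, was scored visually 13 to 15 d after application, 0 to 100 versus controls.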

corn (Zea mays) = settings: for Plant response rating, Corn: scale 0 to 100, 0 no effect, 100 complete control
Outline: as §1

[2] = system: ragweed (common ragweed, Ambrosia elatior); settings: for Plant response rating, Ragweed: scale 0 to 100, 0 no effect, 100 complete control
Outline: as §1

[3] = system: morningglory (Ipomoea coccinea); settings: for Plant response rating, Morningglory: scale 0 to 100, 0 no effect, 100 complete control
Outline: as §1

[4] = system: crabgrass, large (large crabgrass, Digitaria sanguinalis); settings: for Plant response rating, Crabgrass, Large: scale 0 to 100, 0 no effect, 100 complete control
Outline: as §1

[5] = system: Galium (catchweed bedstraw, Galium aparine); settings: for Plant response rating, Galium: scale 0 to 100, 0 no effect, 100 complete control
Outline: as §1

[6] = system: waterhemp (common waterhemp, Amaranthus rudis); settings: for Plant response rating, Waterhemp: scale 0 to 100, 0 no effect, 100 complete control
Outline: as §1

[7] = system: pigweed (Amaranthus retroflexus); settings: for Plant response rating, Pigweed: scale 0 to 100, 0 no effect, 100 complete control
Outline: as §1

[8] = system: oilseed rape (Brassica napus); settings: for Plant response rating, Oilseed Rape: scale 0 to 100, 0 no effect, 100 complete control
Outline: as §1

[9] = system: nutsedge, yellow (yellow nutsedge, Cyperus esculentus); settings: for Plant response rating, Nutsedge, Yellow: scale 0 to 100, 0 no effect, 100 complete control
Outline: as §1

[10] = system: wheat (winter wheat, Triticum aestivum); settings: for Plant response rating, Wheat: scale 0 to 100, 0 no effect, 100 complete control
Outline: as §1

[11] = system: barnyardgrass (Echinochloa crus-galli); settings: for Plant response rating, Barnyardgrass: scale 0 to 100, 0 no effect, 100 complete control
Outline: as §1

soybean (Glycine max) = settings: for Plant response rating, Soybean: scale 0 to 100, 0 no effect, 100 complete control
Outline: as §1

[12] = system: blackgrass (Alopecurus myosuroides); settings: for Plant response rating, Blackgrass: scale 0 to 100, 0 no effect, 100 complete control
Outline: as §1

[13] = system: foxtail, giant (giant foxtail, Setaria faberii); settings: for Plant response rating, Foxtail, Giant: scale 0 to 100, 0 no effect, 100 complete control
Outline: as §1

[14] = system: johnsongrass (Sorghum halepense); settings: for Plant response rating, Johnsongrass: scale 0 to 100, 0 no effect, 100 complete control
Outline: as §1

[15] = system: ryegrass, Italian (Italian ryegrass, Lolium multiflorum); settings: for Plant response rating, Ryegrass, Italian: scale 0 to 100, 0 no effect, 100 complete control
Outline: as §1

[16] = 31 g ai/ha, 0 is no effect, 100 is complete control

CN1CC(c2ccc(C(F)(F)F)cc2)C(C(=O)Nc2ccccc2S(C)(=O)=O)C1=O (centres unmarked) [Compound 624]
98: Plant response rating, Crabgrass, Large ([4]; 250 g ai/ha)
30: Plant response rating, Velvetleaf ([1]; 62 g ai/ha) | Plant response rating, Morningglory ([3]; 125 g ai/ha) | Plant response rating, Ryegrass, Italian ([15]; 125 g ai/ha) | Plant response rating, Ryegrass, Italian ([15]; 250 g ai/ha)
10: Plant response rating (scale of 0 to 100), Velvetleaf [1, 16] | Plant response rating (scale of 0 to 100), Ryegrass, Italian [15, 16]
45: Plant response rating, Velvetleaf ([1]; 125 g ai/ha) | Plant response rating, Wheat ([10]; 125 g ai/ha)
90: Plant response rating, Waterhemp ([6]; 62 g ai/ha) | Plant response rating, Waterhemp ([6]; 125 g ai/ha) | Plant response rating, Pigweed ([7]; 250 g ai/ha) | Plant response rating, Barnyardgrass ([11]; 62 g ai/ha) | Plant response rating, Blackgrass ([12]; 125 g ai/ha) | Plant response rating, Blackgrass ([12]; 250 g ai/ha) | Plant response rating, Foxtail, Giant ([13]; 62 g ai/ha) | Plant response rating, Foxtail, Giant ([13]; 125 g ai/ha)
70: Plant response rating, Blackgrass ([12]; 62 g ai/ha)
15: Plant response rating, Soybean (soybean (Glycine max); 125 g ai/ha)
100: Plant response rating, Crabgrass, Large ([4]; 62 g ai/ha) | Plant response rating, Crabgrass, Large ([4]; 125 g ai/ha) | Plant response rating, Waterhemp ([6]; 250 g ai/ha)
5: Plant response rating, Corn (corn (Zea mays); 125 g ai/ha)
0: Plant response rating (scale of 0 to 100), Corn (corn (Zea mays); [16]) | Plant response rating, Corn (corn (Zea mays); 62 g ai/ha) | Plant response rating (scale of 0 to 100), Morningglory [3, 16] | Plant response rating, Morningglory ([3]; 62 g ai/ha) | Plant response rating (scale of 0 to 100), Nutsedge, Yellow [9, 16] | Plant response rating, Nutsedge, Yellow ([9]; 62 g ai/ha) | Plant response rating (scale of 0 to 100), Wheat [10, 16] | Plant response rating (scale of 0 to 100), Soybean (soybean (Glycine max); [16]) | Plant response rating, Soybean (soybean (Glycine max); 62 g ai/ha) | Plant response rating (scale of 0 to 100), Johnsongrass [14, 16] | Plant response rating, Johnsongrass ([14]; 62 g ai/ha) | Plant response rating, Johnsongrass ([14]; 125 g ai/ha)
65: Plant response rating, Velvetleaf ([1]; 250 g ai/ha) | Plant response rating, Corn (corn (Zea mays); 250 g ai/ha)
85: Plant response rating, Galium ([5]; 62 g ai/ha) | Plant response rating, Galium ([5]; 250 g ai/ha) | Plant response rating (scale of 0 to 100), Waterhemp [6, 16] | Plant response rating, Pigweed ([7]; 62 g ai/ha) | Plant response rating, Pigweed ([7]; 125 g ai/ha) | Plant response rating, Oilseed Rape ([8]; 125 g ai/ha) | Plant response rating, Oilseed Rape ([8]; 250 g ai/ha) | Plant response rating (scale of 0 to 100), Foxtail, Giant [13, 16]
55: Plant response rating, Ragweed ([2]; 62 g ai/ha)
95: Plant response rating (scale of 0 to 100), Crabgrass, Large [4, 16] | Plant response rating, Barnyardgrass ([11]; 125 g ai/ha) | Plant response rating, Barnyardgrass ([11]; 250 g ai/ha) | Plant response rating, Foxtail, Giant ([13]; 250 g ai/ha)
35: Plant response rating, Morningglory ([3]; 250 g ai/ha) | Plant response rating, Wheat ([10]; 62 g ai/ha)
25: Plant response rating (scale of 0 to 100), Ragweed [2, 16] | Plant response rating, Nutsedge, Yellow ([9]; 125 g ai/ha) | Plant response rating, Johnsongrass ([14]; 250 g ai/ha)
75: Plant response rating, Ragweed ([2]; 125 g ai/ha) | Plant response rating (scale of 0 to 100), Oilseed Rape [8, 16] | Plant response rating (scale of 0 to 100), Barnyardgrass [11, 16]
50: Plant response rating (scale of 0 to 100), Galium [5, 16] | Plant response rating, Nutsedge, Yellow ([9]; 250 g ai/ha) | Plant response rating (scale of 0 to 100), Blackgrass [12, 16]
80: Plant response rating, Ragweed ([2]; 250 g ai/ha) | Plant response rating, Galium ([5]; 125 g ai/ha) | Plant response rating (scale of 0 to 100), Pigweed [7, 16] | Plant response rating, Oilseed Rape ([8]; 62 g ai/ha) | Plant response rating, Wheat ([10]; 250 g ai/ha)
40: Plant response rating, Soybean (soybean (Glycine max); 250 g ai/ha) | Plant response rating, Ryegrass, Italian ([15]; 62 g ai/ha)
